Measured values as given in PMC6338644 (The FASEB Journal, 2018).
Structures can show the parent of a compound that is named as a salt.

Legend:
[1] = target: T1, SHIP2 immunoprecipitated from the lysates of hepatoma cells (Rattus norvegicus, UniProt Q9WVR3); assay: Activity of SHIP2 immunoprecipitated from hepatoma cells; type: cell-based; conditions: 10 µM, 20–24 h
T1 construct: endogenous in cells; host or cells: Fao hepatoma cells
T1 sequence (Q9WVR3 1-1257): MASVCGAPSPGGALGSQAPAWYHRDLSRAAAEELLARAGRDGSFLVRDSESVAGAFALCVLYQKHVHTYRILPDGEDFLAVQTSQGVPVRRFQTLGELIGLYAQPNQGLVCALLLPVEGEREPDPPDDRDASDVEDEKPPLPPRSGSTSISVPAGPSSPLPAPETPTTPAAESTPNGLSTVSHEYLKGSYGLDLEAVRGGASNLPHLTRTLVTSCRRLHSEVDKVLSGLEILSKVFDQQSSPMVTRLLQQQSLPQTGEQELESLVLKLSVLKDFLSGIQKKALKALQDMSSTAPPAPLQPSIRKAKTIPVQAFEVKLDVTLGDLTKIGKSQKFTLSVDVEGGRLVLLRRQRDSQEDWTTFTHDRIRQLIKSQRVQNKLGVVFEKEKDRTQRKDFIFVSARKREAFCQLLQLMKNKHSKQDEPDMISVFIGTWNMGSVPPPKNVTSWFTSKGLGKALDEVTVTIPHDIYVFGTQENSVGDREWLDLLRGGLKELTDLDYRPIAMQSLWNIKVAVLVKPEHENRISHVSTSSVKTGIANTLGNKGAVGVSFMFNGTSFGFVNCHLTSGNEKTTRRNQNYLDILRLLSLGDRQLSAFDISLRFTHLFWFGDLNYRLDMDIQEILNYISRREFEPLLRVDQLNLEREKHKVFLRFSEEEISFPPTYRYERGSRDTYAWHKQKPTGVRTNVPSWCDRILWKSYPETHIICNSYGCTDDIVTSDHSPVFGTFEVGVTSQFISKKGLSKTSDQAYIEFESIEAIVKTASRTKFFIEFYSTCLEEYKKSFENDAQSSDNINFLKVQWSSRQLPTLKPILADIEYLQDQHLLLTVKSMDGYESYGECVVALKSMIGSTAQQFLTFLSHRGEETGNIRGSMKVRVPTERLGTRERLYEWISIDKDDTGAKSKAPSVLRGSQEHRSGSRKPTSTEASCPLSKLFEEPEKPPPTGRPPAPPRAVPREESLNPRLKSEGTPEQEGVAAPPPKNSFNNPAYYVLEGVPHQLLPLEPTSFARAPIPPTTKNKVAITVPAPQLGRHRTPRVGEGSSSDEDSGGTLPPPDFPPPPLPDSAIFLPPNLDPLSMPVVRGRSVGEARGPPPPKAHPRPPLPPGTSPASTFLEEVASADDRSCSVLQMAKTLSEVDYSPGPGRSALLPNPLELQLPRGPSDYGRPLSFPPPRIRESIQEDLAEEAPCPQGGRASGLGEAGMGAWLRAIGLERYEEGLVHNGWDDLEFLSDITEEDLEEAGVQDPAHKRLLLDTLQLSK
Procedure: (§4) Immunocomplexes were bound to protein G-Sepharose beads at +4°C for 2 h and washed 3 times with malachite green phosphate assay buffer {10 mM 4-(2-hydroxyethyl)-1-piperazineethanesulfonic acid (HEPES), pH 7.25, 6 mM MgCl2, 0.1% 3-[(3-cholamidopropyl)dimethylammonio]-1-propanesulfonate (CHAPS), 250 mM sucrose, and 0.25 mM EDTA}.
(§5) The catalytic activity of SHIP2 immunoprecipitated from cell and tissue lysates was determined as in Saurus et al. ([22]), omitting SHIP2 inhibitors in lysis buffer, immunoprecipitation reaction, wash, and assay buffers.

[2] = system: GLUT1 and GLUT4 protein expression; assay: Immunoblot of GLUT1 and GLUT4 expression in myotubes and podocytes; type: cell-based, rat, human; conditions: 2 mM, 20–24 h
Excerpt: Rat L6 myoblasts (American Type Culture Collection, Manassas, VA, USA) and hepatoma cells (Fao Cells, Culture Collection; Public Health England, Salisbury, United Kingdom) were maintained according to the provider’s instructions. L6 myoblasts stably expressing hemagglutinin-GLUT4-green fluorescent protein (HA-GLUT4-GFP, referred to as L6-GLUT4) were generated, as previously described ([19]). Immortalized human podocytes were maintained as previously described ([10]). Lentiviral infection was used to overexpress or knock down transiently SHIP2 in cultured cells on d 10–12 of differentiation for 48 h (basal level) or 72 h (insulin stimulation), as previously described ([10], [20]). Human pLKO1-short hairpin RNA (shRNA) SHIP2 ([sequence]) was obtained from Functional Genomics Unit, University of Helsinki. […] Podocytes were lysed as previously described ([21]). Myotubes, hepatoma cells, and tissues were lysed and immunoblotting performed as in Tolvanen et al. ([19]) with anti-SHIP2 and anti-AMPK (Santa Cruz Biotechnology, Dallas, TX, USA); anti-phospho (p)Akt (S473), anti-pAMPK (Thr172), anti-AMPK, and anti-cleaved caspase-3 (Cell Signaling Technology, Danvers, MA, USA); anti-Pan Akt (R&D Systems, Minneapolis, MN, USA); anti-tubulin, anti-Glut4, and anti-Glut1 (MilliporeSigma, Burlington, MA, USA); and anti-actin (Abcam, Cambridge, United Kingdom).

db/db mice = assay: Metabolic assays in db/db mice; type: in vivo, mouse; conditions: 250 mg/kg per day, 12 d
Procedure: At the end of the experiment, mice were euthanized.
Insulin tolerance test was performed and blood glucose measured at the indicated times after insulin injection, and the area under the curve (AUC) was calculated (n = 5–6).

[3] = system: HA-GLUT4-GFP at the plasma membrane of L6-GLUT4 cells; assay: On-Cell Western and HA-GLUT4-GFP endocytosis assay in L6-GLUT4 cells; type: cell-based, rat; conditions: 20–24 h
Procedure: (§1) Glucose uptake assay and On-Cell Western were performed essentially as in Tolvanen et al. ([19]). […] Cells were transferred on ice; incubated with anti-HA IgG in serum-free medium for 15 min, followed by additional incubation in fresh cell differentiation medium for 15 min at +37°C; and fixed with 2% paraformaldehyde for 20 min. Cells were incubated with IRDye 800 donkey anti-mouse IgG and nuclear marker DRAQ-5 (Thermo Fisher Scientific). Detection and quantitation were performed with the Odyssey Infrared Imager (Li-Cor Biosciences, Lincoln, NE, USA).
C) Knockdown of SHIP2 reduces metformin-induced glucose uptake. […] L6-GLUT4 myotubes overexpressing SHIP2 were treated and glucose uptake performed as described in C. […] Time point 15 min indicates the amount of HA detected on the cells after 15 min internalization.

[4] = target: T2, purified His-tagged SHIP2 phosphatase domain (Homo sapiens, UniProt O15357); assay: Manual malachite green phosphate assay (96-well), purified SHIP2 phosphatase domain; type: biochemical; conditions: 10 µM; 100 ng enzyme; manual assay (Fig. 1B)
T2 construct: we produced a His-tagged human SHIP2 phosphatase domain; His; made in house
T2 sequence (O15357 419-732 limits assumed): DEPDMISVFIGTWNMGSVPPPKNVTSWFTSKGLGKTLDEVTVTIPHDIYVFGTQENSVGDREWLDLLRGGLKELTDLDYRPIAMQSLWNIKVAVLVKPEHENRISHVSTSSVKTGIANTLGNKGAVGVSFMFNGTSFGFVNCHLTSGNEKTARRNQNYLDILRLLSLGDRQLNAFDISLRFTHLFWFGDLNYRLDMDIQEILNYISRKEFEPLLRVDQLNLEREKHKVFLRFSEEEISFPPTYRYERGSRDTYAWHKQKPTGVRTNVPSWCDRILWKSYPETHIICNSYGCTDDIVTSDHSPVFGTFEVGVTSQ
Procedure: as §4
The catalytic activities of the recombinant SHIP2 and SHIP1 phosphatase domains were determined by malachite green phosphate assay at the High Throughput Biomedicine Unit (University of Helsinki) using D-myo-PI(3,4,5)P3 (Echelon Biosciences, Salt Lake City, UT, USA). Different volumes, resulting in desired final concentrations of inhibitors, were transferred to the wells of 384-well plates by using the Echo550 acoustic dispenser (Labcyte, San Jose, CA, USA). Recombinant protein (100 ng) in reaction buffer {10 mM HEPES, pH 7.25, 6 mM MgCl2, 0.1% CHAPS, 250 mM sucrose, and 0.25 mM EDTA} was placed in each well (7.5 µl), and the plates were preincubated at room temperature for 15 min. The phosphatase reaction was started by adding PI(3,4,5)P3 diluted in the reaction buffer (7.5 µl) to each well to reach a final concentration of 100 µM PI(3,4,5)P3 in the 15 µl reaction volume. […] Absorbance was measured at 620 nm using a Pherastar FS plate reader (BMG Labtech, Offenburg, Germany). […]
The catalytic activity of SHIP2 was measured by manual malachite green phosphate assay. […]

L6-GLUT4 myotubes = assay: Glucose uptake assay in L6-GLUT4 myotubes; type: cell-based, rat; conditions: metformin 2 mM
Procedure: (§2) Immortalized human podocytes were maintained as previously described ([10]). […] Podocytes were lysed as previously described ([21]).
as §1
(§3) L6-GLUT4 myotubes overexpressing SHIP2 were treated and glucose uptake performed as described in C. […] Time point 15 min indicates the amount of HA detected on the cells after 15 min internalization.

[5] = system: SHIP2-overexpressing podocytes; assay: Apoptosis of SHIP2-overexpressing podocytes (cleaved caspase-3 immunoblot, Annexin V flow cytometry); type: cell-based, human; conditions: 2 mM, 48 h
Procedure: Immortalized human podocytes were maintained as previously described ([10]). Lentiviral infection was used to overexpress or knock down transiently SHIP2 in cultured cells on d 10–12 of differentiation for 48 h (basal level) or 72 h (insulin stimulation), as previously described ([10], [20]). […] Apoptosis was measured by flow cytometry using the Annexin V-FITC Apoptosis Kit (Becton Dickinson, Franklin Lakes, NJ, USA) and double staining with 7-aminoactinomycin D (Becton Dickinson), as previously described ([10]). Podocytes were lysed as previously described ([21]). Myotubes, hepatoma cells, and tissues were lysed and immunoblotting performed as in Tolvanen et al. ([19]) with anti-SHIP2 and anti-AMPK (Santa Cruz Biotechnology, Dallas, TX, USA); anti-phospho (p)Akt (S473), anti-pAMPK (Thr172), anti-AMPK, and anti-cleaved caspase-3 (Cell Signaling Technology, Danvers, MA, USA); anti-Pan Akt (R&D Systems, Minneapolis, MN, USA); anti-tubulin, anti-Glut4, and anti-Glut1 (MilliporeSigma, Burlington, MA, USA); and anti-actin (Abcam, Cambridge, United Kingdom).
Cell lysates were subjected to immunoblot analysis with anti-SHIP2, anti-cleaved caspase-3, and anti-actin IgGs. […] B, C) Quantification of SHIP2 and cleaved caspase-3 levels in A, normalized to actin. […] Apoptosis was measured by flow cytometry using Annexin V-FITC and 7-aminoactinomycin D (7AAD) double staining. […]

[6] = target: SHIP2 in tissues of db/db mice (Mus musculus, UniProt Q6P549); conditions: 250 mg/kg per day, 12 d
Procedure: as §5
At the end of the experiment, mice were euthanized. Freshly dissected skeletal muscle, kidney, and liver tissues were snap frozen in liquid nitrogen, embedded in Tissue-Tek Optimal Cutting Temperature (OCT) compound (Sakura Finetek, Alphen aan den Rijn, The Netherlands), or fixed in 10% formalin, followed by embedding in paraffin.
SHIP2 was immunoprecipitated from tissue lysates and its catalytic activity measured by malachite green phosphate assay (n = 6–8).

[7] = system: Immortalized human podocytes; assay: Glucose uptake assay in podocytes; type: cell-based
Procedure: as §2, §1, §3

[8] = 20–24 h, insulin 100 nM, 15 min

Chain of SHIP2 in tissues of db/db mice (Q6P549 whole entry): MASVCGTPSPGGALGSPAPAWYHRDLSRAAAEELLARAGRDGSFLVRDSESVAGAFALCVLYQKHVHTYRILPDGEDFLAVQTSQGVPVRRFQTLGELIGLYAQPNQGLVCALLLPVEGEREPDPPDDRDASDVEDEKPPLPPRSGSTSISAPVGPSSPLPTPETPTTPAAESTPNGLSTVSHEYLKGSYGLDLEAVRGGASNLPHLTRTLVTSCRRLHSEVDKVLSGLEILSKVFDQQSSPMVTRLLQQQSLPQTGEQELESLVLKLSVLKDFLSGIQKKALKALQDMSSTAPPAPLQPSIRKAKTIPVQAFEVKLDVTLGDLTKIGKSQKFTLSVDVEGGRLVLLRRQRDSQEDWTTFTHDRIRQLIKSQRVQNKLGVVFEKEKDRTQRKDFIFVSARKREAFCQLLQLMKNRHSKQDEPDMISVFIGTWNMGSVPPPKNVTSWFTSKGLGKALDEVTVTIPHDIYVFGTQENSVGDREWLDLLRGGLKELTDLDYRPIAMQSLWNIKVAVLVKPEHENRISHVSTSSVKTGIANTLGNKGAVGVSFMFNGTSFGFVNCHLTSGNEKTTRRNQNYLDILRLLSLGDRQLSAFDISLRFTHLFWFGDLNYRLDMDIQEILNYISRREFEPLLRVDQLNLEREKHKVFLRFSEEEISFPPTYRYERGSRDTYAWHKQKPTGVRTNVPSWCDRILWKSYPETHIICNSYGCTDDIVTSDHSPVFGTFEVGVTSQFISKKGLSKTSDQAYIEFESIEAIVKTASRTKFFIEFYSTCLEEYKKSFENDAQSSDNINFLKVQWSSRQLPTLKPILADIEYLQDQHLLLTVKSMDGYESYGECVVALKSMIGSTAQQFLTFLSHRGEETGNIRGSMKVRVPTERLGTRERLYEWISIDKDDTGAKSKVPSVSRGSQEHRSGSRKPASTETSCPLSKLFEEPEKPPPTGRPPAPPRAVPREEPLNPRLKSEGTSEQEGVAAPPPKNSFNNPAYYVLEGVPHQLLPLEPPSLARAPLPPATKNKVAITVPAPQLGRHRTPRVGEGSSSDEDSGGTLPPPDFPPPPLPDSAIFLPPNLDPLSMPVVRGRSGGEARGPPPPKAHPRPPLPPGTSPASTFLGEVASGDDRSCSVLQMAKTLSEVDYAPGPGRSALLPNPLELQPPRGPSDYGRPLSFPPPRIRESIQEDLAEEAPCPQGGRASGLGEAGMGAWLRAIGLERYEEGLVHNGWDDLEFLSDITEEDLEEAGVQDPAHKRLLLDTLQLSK

## C[C@H](NC(=O)c1sccc1OCc1ccc(Cl)cc1)c1ccccc1 [AS1949490]
[1]
  inhibition of SHIP2 in hepatoma cells: did not inhibit

## CN(C)C(=N)N=C(N)N [Metformin, 1,1-Dimethylbiguanide hydrochloride]
[2]
  effect on GLUT1 and GLUT4 protein expression levels: no effect
db/db mice
  effect on body weight: no effect
db/db mice; 6 h fasting
  effect on fasting blood glucose concentrations: no effect
db/db mice; 24 h urine
  effect on urinary albumin excretion: no effect
db/db mice; insulin 0.75 U/kg
  insulin tolerance test: fasting blood glucose at 30–120 min after insulin administration: reduces
  insulin tolerance test: glucose area under the curve: reduces
[3]; L6-GLUT4 cells, basal conditions, 2 mM
  increase in amount of HA-GLUT4-GFP on the PM: 40%
[3]; metformin 2 mM
  decrease in amount of HA-GLUT4-GFP on the PM after 15 min uptake (endocytosis): 10%
[4]
  reduction of catalytic activity of recombinant SHIP2 phosphatase domain: 44%
L6-GLUT4 myotubes; SHIP2 shRNA, 20–24 h, insulin 100 nM, 15 min
  increase in insulin-stimulated glucose uptake, SHIP2 knockdown: 109%
L6-GLUT4 myotubes; control shRNA, 20–24 h, insulin 100 nM, 15 min
  increase in glucose uptake in L6-GLUT4 myotubes: 148%
L6-GLUT4 myotubes; [8]
  increase in glucose uptake in empty vector-transfected myotubes: 155%
  increase in insulin-stimulated glucose uptake, SHIP2 overexpression: 76%
L6-GLUT4 myotubes; 20–24 h, serum-starved
  increase in glucose uptake in L6-GLUT4 cells: 218%
L6-GLUT4 myotubes; 20–24 h plus insulin 100 nM, 15 min
  glucose uptake in L6-GLUT4 cells, metformin together with insulin: did not have an additive effect
[5]
  cleaved caspase-3 level in SHIP2-overexpressing podocytes: back to the level in the control
  level of apoptosis (Annexin V, flow cytometry) in SHIP2-overexpressing podocytes: back to the level of the control
[6]
  SHIP2 activity in the liver: not reduced
  decrease in enzymatic activity of SHIP2 in kidney: 40%
[7]
  increase in glucose uptake in podocytes: 52%
  increase in glucose uptake in podocytes, metformin together with insulin: 80%
